Reference: article PMC9772221 (Archives of biochemistry and biophysics, 2022)
Like-named read-outs stand apart in the source and are kept apart here.

What was measured:
[1] = biological target: T1, PYCR3 (Homo sapiens, UniProt Q53H96); assay: Competitive; assay type: biochemical; conditions: pH 7.5, 26°C, NADH fixed at 175 μM
T1 sequence (Q53H96 11-274): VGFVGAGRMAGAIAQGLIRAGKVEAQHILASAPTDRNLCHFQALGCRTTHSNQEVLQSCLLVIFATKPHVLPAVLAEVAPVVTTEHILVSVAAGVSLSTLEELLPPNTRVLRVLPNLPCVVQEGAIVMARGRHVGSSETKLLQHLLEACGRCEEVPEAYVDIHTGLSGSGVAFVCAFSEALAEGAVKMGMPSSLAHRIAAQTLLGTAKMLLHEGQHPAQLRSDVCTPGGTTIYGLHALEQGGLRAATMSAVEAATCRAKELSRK

[2] = biological target: PYCR1; conditions: read-out: Ki against PYCR1; cited from earlier work
[3] = biological target: T1, PYCR3; assay: Single-point inhibition screen of proline analogs against PYCR3; assay type: biochemical; conditions: proline analog 5 mM, L-P5C 200 μM, NADH 175 μM
[4] = biological target: PYCR3; conditions: read-out: Ki of L-proline against PYCR3, previous estimate; cited from earlier work
[5] = biological target: T1, PYCR3; assay: Steady-state; assay type: biochemical; conditions: pH 7.5, 26°C
[6] = system: PYCR1; conditions: PYCR1, variable L-P5C, NADH = 175 μM; cited from earlier work
[7] = biological target: T1, PYCR3; assay: Bi-substrate kinetic analysis of PYCR3, global fitting to bi bi models; assay type: biochemical; conditions: read-out: K^P5C, L-P5C on abscissa, L-P5C binds first, pH 7.5, 26°C
[8] = PYCR3, variable L-P5C, NADH = 175 μM
[9] = PYCR3, variable L-P5C, NADPH = 175 μM
[10] = PYCR3, variable coenzyme, L-P5C = 400 μM

## O=CN1CCC[C@H]1C(=O)O [Compound 2, N-formyl-L-proline]
[1]; read-out: Ki, apparent competitive (with L-P5C) inhibition constant
  Ki: 1200 ± 100 µM
[2]
  Ki: 100 µM
[3]
  catalytic activity compared to the control assay with no inhibitor: ≤ 50%

## O=C(O)[C@@H]1CCCN1 [Compound 17, L-proline]
[1]; Ki, apparent competitive (with L-P5C) inhibition constant
  Ki: 5700 ± 600 µM
[4]
  Ki: ~8000 µM

## O=C(O)C1CCC=N1 [L-P5C, Δ^1-pyrroline-5-carboxylate]
[5]; [8]
  Km: 315 ± 65 µM
  kcat: 146 ± 17 s⁻¹
[5]; [9]
  Km: 64 ± 48 µM
  kcat: 48 ± 11 s⁻¹
[6]
  Km: 260 ± 63 µM
  kcat: 51 ± 13 s⁻¹
[7]; equilibrium compulsory ordered bi bi (Equation 2)
  Kd: 1500 ± 700 µM
[7]; steady-state compulsory ordered bi bi (Equation 3)
  Kd: 110 ± 70 µM

## NC(=O)C1=CN([C@@H]2O[C@H](COP(=O)(O)OP(=O)(O)OC[C@H]3O[C@@H](n4cnc5c(N)ncnc54)[C@H](O)[C@@H]3O)[C@@H](O)[C@H]2O)C=CC1 [NADH]
[5]; [10]
  Km: 192 ± 8 µM
  kcat: 235 ± 5 s⁻¹

## NC(=O)C1=CN([C@@H]2O[C@H](COP(=O)(O)OP(=O)(O)OC[C@H]3O[C@@H](n4cnc5c(N)ncnc54)[C@H](OP(=O)(O)O)[C@@H]3O)[C@@H](O)[C@H]2O)C=CC1 [NADPH]
[5]; [10]
  Km: 45 ± 3 µM
  kcat: 70 ± 2 s⁻¹
